# From US12030897B2, “Pyrrolo[2,1-f][1,2,4]triazine derivatives serving as selective HER2 inhibitors and application thereof” (MEDSHINE DISCOVERY INC., priority 2018, dated 2024)
# Like-named read-outs stand apart in the source and are kept apart here.
# How the values were obtained:
# CYP2C9 = CYP2C9 (Homo sapiens (Human), UniProt P11712); experiment: Inhibition of human liver microsomal cytochrome P450 isoenzyme CYP2C9; type: in vitro ADME; conditions: human liver microsomes
# Experimental: (§1) The object of this study was to evaluate the effect of Example 4 on the activities of five isoenzymes (CYP1A2, CYP2C9, CYP2C19, CYP2D6 and CYP3A4) of human liver microsomal cytochrome P450 (CYP) using an in vitro test system. The specific probe substrates of CYP450 isozymes were incubated with human liver microsomes and different concentrations of Example 4, and reduced nicotinamide adenine dinucleotide phosphate (NADPH) was added to initiate the reaction. After the reaction was completed, the samples were treated, and liquid chromatography tandem mass spectrometry (LC/MS/MS) was used to detect the metabolites produced by specific substrates.
# CYP3A4 = CYP3A4 (Homo sapiens (Human), UniProt P08684); experiment: Inhibition of human liver microsomal cytochrome P450 isoenzyme CYP3A4; type: in vitro ADME; conditions: human liver microsomes
# Experimental: as §1
# [1] = Pharmacokinetic properties in mice; type: in vivo; conditions: female, Balb/c; for clearance / Vd / bioavailability: plasma, mouse; for Vd: read-out: Vdss; for bioavailability: read-out: F (bioavailability); for AUC(0-inf) / AUC(0-t) / half-life / Cmax: mouse plasma
# Experimental: The tested compound was dissolved in 10% DMSO/45% PEG400/45% water, vortexed and sonicated to prepare a clear solution with the corresponding concentration, which was filtered through a millipore filter for use. 18 to 20 grams of Balb/c female mice were selected, and the candidate compound solution was administered intravenously at a dose of 1 or 2 mg/kg. The tested compound was dissolved in 10% NMP/10% polyethylene glycol-15-hydroxystearate/80% water, vortexed and sonicated to prepare a clear solution with the corresponding concentration, which was filtered through a millipore filter for use. 18 to 20 grams of Balb/c female mice were selected, and the candidate compound solution was administered orally at a dose of 2 or 10 mg/kg. The whole-blood for a certain period of time was collected to prepare plasma. The drug concentration was analyzed by the LC-MS/MS method, and the pharmacokinetic parameters were calculated by the Phoenix WinNonlin software (Pharsight, USA).
# CYP2D6 = CYP2D6 (Homo sapiens (Human), UniProt P10635); experiment: Inhibition of human liver microsomal cytochrome P450 isoenzyme CYP2D6; type: in vitro ADME; conditions: human liver microsomes
# Experimental: as §1
# HER4 (ErbB4) = HER4 (ErbB4) (Homo sapiens (Human), UniProt Q15303); experiment: In vitro enzyme activity, HER4 (ErbB4), [γ-33P]ATP filter assay; type: biochemical
# Experimental: (§2) The object of this test is to detect the in vitro inhibitory activity of the compound against HER1 (ErbB1), HER2 (ErbB2) and HER4 (ErbB4). The enzymes used in this test were human ErbB1, ErbB2 and ErbB4. Eurofins Pharma Discovery Service provided the activity detection method, and the results of the inhibitory activity of the tested compound against HER1, HER2 and HER4 were shown in Table 1.
# (§3) Experimental Steps and Methods (96-Well Plate):
# (§4) 5-fold diluted tested compound buffer (5 μL), peptide substrate poly(Glu, Tyr) (4:1) (2.5 μL), ErbB (4-20 ng, 2.5 μL), MnCl2 (50 mM, 1.25 μL), dH2O (3.75 μL) and [γ-^33P]ATP (10 μL) were added, and incubated at 30° C. for 10 min. 3% phosphoric acid was added to terminate the reaction, and 10 μL of the specimen was transferred to Filtermate A. The filter was washed with 75 mM phosphoric acid for three times and methanol once, and transferred to a sealed plastic bag, and a scintillation fluid mixture (4 mL) was added, The intensity of the emitted photons was detected on the scintillation luminescence counter. The photon intensity of the enzyme sample was compared with the photon intensity of the internal control sample, and the level of photon intensity reflected the strength of the tyrosine kinase activity.
# CYP1A2 = CYP1A2 (Homo sapiens (Human), UniProt P05177); type: in vitro ADME; conditions: microsomes
# Experimental: as §1
# HER2 (ErbB2) = HER2 (ErbB2) (Homo sapiens (Human), UniProt P04626); experiment: In vitro enzyme activity, HER2 (ErbB2), [γ-33P]ATP filter assay; type: biochemical
# Experimental: as §2, §3, §4
# CYP2D6, sequence (P10635 whole entry): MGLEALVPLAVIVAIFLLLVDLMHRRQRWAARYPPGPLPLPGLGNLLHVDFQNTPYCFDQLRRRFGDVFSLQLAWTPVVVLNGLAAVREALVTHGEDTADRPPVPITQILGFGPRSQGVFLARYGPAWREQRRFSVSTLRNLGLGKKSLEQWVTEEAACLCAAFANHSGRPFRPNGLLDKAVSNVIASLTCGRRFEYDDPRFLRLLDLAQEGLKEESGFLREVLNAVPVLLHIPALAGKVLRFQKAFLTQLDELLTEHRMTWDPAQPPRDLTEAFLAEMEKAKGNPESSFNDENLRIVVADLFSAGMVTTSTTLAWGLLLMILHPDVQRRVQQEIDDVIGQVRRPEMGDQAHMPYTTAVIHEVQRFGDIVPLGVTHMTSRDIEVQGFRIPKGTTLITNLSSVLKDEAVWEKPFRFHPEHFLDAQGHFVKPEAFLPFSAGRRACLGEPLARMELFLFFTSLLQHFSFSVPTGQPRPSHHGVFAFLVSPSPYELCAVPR
# HER2 (ErbB2), sequence (P04626 23-1255): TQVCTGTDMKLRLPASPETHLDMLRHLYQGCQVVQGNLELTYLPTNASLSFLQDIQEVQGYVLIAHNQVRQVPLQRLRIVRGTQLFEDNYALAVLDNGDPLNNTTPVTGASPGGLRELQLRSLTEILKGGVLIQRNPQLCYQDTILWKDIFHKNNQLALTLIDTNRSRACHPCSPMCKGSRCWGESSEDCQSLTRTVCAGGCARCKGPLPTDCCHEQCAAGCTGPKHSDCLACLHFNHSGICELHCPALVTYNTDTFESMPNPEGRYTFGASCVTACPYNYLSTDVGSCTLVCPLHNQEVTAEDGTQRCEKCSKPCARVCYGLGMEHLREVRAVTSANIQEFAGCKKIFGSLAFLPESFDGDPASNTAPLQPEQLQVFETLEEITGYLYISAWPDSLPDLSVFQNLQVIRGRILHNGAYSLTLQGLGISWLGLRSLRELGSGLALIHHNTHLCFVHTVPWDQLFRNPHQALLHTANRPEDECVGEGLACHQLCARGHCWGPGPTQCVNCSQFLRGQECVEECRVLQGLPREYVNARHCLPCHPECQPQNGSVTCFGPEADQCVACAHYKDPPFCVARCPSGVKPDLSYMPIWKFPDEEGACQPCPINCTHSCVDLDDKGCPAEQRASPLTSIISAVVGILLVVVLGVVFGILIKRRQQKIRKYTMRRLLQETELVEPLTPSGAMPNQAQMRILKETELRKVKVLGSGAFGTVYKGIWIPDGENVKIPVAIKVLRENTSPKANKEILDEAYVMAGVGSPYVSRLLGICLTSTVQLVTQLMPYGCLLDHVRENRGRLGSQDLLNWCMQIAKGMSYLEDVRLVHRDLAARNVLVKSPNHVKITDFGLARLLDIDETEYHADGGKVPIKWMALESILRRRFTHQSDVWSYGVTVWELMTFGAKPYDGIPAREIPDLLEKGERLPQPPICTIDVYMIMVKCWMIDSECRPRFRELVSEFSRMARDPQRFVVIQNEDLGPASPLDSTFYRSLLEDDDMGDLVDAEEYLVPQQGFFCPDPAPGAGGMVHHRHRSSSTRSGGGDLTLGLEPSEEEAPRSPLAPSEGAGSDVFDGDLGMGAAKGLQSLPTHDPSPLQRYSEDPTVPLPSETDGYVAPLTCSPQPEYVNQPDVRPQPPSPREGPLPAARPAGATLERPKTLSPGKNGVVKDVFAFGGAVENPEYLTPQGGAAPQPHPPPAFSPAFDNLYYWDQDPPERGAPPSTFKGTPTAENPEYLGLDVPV
# HER4 (ErbB4), sequence (Q15303 26-1308): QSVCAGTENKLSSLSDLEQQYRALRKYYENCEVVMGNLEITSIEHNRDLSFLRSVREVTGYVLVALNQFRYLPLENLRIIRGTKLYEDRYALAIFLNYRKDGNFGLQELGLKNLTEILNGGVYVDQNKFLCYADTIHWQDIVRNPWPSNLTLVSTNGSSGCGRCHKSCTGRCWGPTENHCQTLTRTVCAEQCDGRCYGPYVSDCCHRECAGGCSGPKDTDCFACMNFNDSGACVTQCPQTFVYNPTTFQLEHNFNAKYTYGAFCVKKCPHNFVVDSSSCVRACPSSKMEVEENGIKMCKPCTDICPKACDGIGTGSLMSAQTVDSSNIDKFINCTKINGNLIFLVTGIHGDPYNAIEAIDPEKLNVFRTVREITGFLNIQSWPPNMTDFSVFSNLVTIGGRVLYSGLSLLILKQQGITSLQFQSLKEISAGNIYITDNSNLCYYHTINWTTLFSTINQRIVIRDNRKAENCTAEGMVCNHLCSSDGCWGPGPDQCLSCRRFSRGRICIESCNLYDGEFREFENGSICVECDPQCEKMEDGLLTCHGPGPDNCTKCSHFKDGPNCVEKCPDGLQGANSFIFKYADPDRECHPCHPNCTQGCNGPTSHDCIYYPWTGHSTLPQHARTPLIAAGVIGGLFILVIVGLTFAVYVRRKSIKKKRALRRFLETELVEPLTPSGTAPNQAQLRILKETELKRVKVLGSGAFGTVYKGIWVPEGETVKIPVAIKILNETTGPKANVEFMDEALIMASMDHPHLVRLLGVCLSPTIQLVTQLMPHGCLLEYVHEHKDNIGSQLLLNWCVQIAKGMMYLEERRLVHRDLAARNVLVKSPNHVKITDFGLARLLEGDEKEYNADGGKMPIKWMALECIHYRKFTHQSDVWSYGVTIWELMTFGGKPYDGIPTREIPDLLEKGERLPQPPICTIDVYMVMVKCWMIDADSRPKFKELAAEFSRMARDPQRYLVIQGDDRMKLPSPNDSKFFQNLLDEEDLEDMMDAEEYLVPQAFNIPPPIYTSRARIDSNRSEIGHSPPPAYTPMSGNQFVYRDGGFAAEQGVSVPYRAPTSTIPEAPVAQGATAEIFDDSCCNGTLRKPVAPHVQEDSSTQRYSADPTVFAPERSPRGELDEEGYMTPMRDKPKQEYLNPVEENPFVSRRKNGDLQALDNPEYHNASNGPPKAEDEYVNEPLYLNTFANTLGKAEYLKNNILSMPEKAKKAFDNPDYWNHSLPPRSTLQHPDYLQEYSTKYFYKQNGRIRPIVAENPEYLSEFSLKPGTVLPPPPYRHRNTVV
# CYP2C9, sequence (P11712 whole entry): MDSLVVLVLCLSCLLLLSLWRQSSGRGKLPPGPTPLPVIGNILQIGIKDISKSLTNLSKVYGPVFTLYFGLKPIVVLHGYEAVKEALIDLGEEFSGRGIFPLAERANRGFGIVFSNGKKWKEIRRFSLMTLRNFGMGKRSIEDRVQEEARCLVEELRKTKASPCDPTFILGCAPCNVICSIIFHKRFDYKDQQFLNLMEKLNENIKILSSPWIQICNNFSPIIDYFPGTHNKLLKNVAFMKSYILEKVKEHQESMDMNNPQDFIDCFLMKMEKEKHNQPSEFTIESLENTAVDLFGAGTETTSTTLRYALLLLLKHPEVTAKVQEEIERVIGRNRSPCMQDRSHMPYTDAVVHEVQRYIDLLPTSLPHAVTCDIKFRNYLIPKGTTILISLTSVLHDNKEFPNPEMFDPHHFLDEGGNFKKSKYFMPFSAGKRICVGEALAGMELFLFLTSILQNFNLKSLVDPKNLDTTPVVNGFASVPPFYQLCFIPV
# CYP1A2, sequence (P05177 whole entry): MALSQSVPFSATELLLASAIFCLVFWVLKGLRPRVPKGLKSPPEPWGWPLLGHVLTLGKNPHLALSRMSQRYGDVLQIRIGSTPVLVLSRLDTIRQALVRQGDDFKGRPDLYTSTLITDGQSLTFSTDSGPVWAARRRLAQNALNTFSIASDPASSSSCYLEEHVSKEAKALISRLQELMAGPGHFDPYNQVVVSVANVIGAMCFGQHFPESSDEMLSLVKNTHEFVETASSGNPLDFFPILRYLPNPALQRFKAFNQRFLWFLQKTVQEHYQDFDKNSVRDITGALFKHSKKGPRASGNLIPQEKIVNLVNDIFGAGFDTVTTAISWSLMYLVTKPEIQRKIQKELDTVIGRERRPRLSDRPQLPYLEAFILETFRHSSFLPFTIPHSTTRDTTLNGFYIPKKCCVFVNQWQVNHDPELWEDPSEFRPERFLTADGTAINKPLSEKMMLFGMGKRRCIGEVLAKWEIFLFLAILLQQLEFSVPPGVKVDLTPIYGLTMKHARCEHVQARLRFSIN
# CYP3A4, sequence (P08684 whole entry): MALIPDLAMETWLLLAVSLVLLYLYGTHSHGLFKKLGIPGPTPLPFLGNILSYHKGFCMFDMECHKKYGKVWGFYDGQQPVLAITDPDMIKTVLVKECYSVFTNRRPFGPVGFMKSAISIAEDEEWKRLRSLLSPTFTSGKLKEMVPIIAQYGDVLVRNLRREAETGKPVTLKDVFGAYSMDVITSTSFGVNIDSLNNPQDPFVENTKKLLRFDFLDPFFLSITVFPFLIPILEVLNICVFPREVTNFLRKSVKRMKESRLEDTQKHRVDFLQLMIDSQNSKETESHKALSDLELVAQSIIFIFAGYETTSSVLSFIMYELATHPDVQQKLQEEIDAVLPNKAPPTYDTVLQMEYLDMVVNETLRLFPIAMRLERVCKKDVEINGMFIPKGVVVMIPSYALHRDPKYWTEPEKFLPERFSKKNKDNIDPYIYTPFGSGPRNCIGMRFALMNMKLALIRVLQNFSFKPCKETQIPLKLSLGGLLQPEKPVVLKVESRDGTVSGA
smiles,measurement,setting,value
Cc1cc(Nc2ncnn3ccc(CN4CCC(N)CC4)c23)ccc1Oc1ccn2ncnc2c1 [Example 4],IC50,CYP2C9,> 50 µM
same,IC50,CYP3A4,32.4 µM
same,clearance,[1]; IV 1 mg/kg,19.2 mL/min/kg
same,Vd,[1]; IV 1 mg/kg,2.3 L/kg
same,clearance,[1]; IV 2 mg/kg,33 mL/min/kg
same,Vd,[1]; IV 2 mg/kg,2.81 L/kg
same,bioavailability,[1]; PO 2 mg/kg,22.7%
same,bioavailability,[1]; PO 10 mg/kg,40.2%
same,AUC(0-inf),[1]; IV 1 mg/kg,1.57 µM·h
same,AUC(0-t),[1]; IV 1 mg/kg,1.52 µM·h
same,half-life,[1]; IV 1 mg/kg,1.65 h
same,AUC(0-inf),[1]; IV 2 mg/kg,2.15 µM·h
same,AUC(0-t),[1]; IV 2 mg/kg,2.13 µM·h
same,half-life,[1]; IV 2 mg/kg,1.34 h
same,AUC(0-inf),[1]; PO 2 mg/kg,0.95 µM·h
same,AUC(0-t),[1]; PO 2 mg/kg,0.928 µM·h
same,Cmax,[1]; PO 2 mg/kg,306 nM
same,half-life,[1]; PO 2 mg/kg,1.37 h
same,AUC(0-inf),[1]; PO 10 mg/kg,4.33 µM·h
same,AUC(0-t),[1]; PO 10 mg/kg,4.28 µM·h
same,Cmax,[1]; PO 10 mg/kg,1250 nM
same,half-life,[1]; PO 10 mg/kg,1.08 h
same,IC50,CYP2D6,25.4 µM
same,IC50,HER4 (ErbB4),0.156 µM
same,IC50,CYP1A2,> 50 µM
same,IC50,HER2 (ErbB2),0.012 µM
